Non-standard residues stand in square brackets, D forms with d. Residues, ends and D or L forms follow the SMILES beside them. Phe(4-CONH2) = NC(=O)c1ccc(C[C@H](N)C(=O)O)cc1; Pro(cis-4-F) = O=C(O)[C@@H]1C[C@H](F)CN1; hPhe = N[C@@H](CCc1ccccc1)C(=O)O; hSer = N[C@@H](CCO)C(=O)O
What follows are compounds tested against Kelch-like ECH-associated protein 1 (Homo sapiens, UniProt Q14145) (assay: Binding affinity to human KEAP1 Kelch domain (322 to 609 residues) incubated for 60 mins by TR-FRET assay).
Sequence of Kelch-like ECH-associated protein 1 (Q14145 whole entry, the tested form may be a part): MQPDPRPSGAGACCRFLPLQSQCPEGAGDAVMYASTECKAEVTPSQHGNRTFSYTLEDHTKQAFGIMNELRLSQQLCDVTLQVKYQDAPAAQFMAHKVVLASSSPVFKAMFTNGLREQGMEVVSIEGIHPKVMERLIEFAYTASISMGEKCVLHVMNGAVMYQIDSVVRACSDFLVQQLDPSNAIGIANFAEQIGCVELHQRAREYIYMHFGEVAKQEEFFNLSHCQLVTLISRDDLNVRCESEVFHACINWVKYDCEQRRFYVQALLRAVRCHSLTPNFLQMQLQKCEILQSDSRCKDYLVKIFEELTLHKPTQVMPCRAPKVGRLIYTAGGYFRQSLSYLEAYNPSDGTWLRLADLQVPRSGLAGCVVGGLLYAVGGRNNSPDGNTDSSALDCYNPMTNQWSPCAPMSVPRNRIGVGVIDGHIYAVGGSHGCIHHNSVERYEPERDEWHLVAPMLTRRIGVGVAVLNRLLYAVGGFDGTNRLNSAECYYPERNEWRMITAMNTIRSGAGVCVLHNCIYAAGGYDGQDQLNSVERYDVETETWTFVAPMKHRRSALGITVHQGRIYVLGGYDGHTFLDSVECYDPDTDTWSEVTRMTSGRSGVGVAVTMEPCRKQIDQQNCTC
Compound CC(=O)N[C@@H](CC(C)C)C(=O)N[C@@H](CC(=O)O)C(=O)N[C@@H](CCC(=O)O)C(=O)N[C@@H](CCC(=O)O)C(=O)N[C@H](C(=O)NCC(=O)N[C@@H](CCO)C(=O)N[C@@H](Cc1ccccc1)C(=O)N[C@@H](CC(C)C)C(N)=O)[C@@H](C)O (Ac-LDEETG[hSer]FL-NH2) has an IC50 of over 50 µM. Work on CC(=O)N[C@@H](CC(C)C)C(=O)N[C@@H](CC(=O)O)C(=O)N[C@@H](CCC(=O)O)C(=O)N[C@@H](CCC(=O)O)C(=O)N[C@H](C(=O)NCC(=O)N[C@@H](Cc1ccc(C(N)=O)cc1)C(=O)N[C@@H](Cc1ccccc1)C(=O)N[C@@H](CC(C)C)C(N)=O)[C@@H](C)O (Ac-LDEETG[Phe(4-CONH2)]FL-NH2) yielded an IC50 of over 64 µM. CC(=O)N[C@@H](CC(C)C)C(=O)N[C@@H](CC(=O)O)C(=O)N1C[C@@H](F)C[C@H]1C(=O)N[C@@H](CCC(=O)O)C(=O)N[C@@H](Cc1ccccc1)C(=O)NCC(=O)N[C@@H](CCC(=O)O)C(=O)N[C@@H](Cc1ccccc1)C(=O)N[C@@H](CC(C)C)C(N)=O (Ac-LD[Pro(cis-4-F)]EFGEFL-NH2) showed an IC50 of over 64 µM. Ac-LDEQTGEFL-NH2 showed an IC50 of over 64 µM. CC(=O)N[C@@H](CC(C)C)C(=O)N[C@@H](CC(=O)O)C(=O)N[C@@H](CCC(=O)O)C(=O)N[C@@H](CCc1ccccc1)C(=O)N[C@H](C(=O)NCC(=O)N[C@@H](CCC(=O)O)C(=O)N[C@@H](Cc1ccccc1)C(=O)N[C@@H](CC(C)C)C(N)=O)[C@@H](C)O (Ac-LDE[hPhe]TGEFL-NH2) showed an IC50 of over 64 µM.

— ChEMBL document CHEMBL4665857, “Optimization of linear and cyclic peptide inhibitors of KEAP1-NRF2 protein-protein interaction” (Bioorg Med Chem, 2020)
